Entries after “also recorded” stand apart in the source; their conditions may differ.
Tests used:
[1] = tested on: T type calcium channel; test: T type calcium channel currents in N1E115 neuroblastoma cells (whole-cell patch-clamp); assay type: cell-based, mouse; conditions: same concentration (100 μM); N1E-115 cells
Method: (§1) A study of the effects of HT1001 and some pure ginsenosides on calcium channel activity in cultured neuroblastoma cells was conducted.
(§2) Neuroblastoma Cell Culture. Mouse neuroblastoma cells (N1E115) were cultured in Dulbecco's modified Eagle's medium (GIBCO) containing 10% fetal bovine serum at 37° C. in a humidified atmosphere of 5% CO2 in air. The medium was changed every 3-4 days. After mechanical agitation, 3×10^4 cells were replanted in 35 mm tissue culture dishes containing 4 ml of bath solution. After cell attachment, the dish was mounted on the stage of an inverted phase-contrast microscope (Nikon) for Ca^2+ channel current recording. These cells expressed predominately T channel currents. In experiments where L channels were specifically sought, the cells were grown and maintained at confluence for 3-4 weeks under the same culture conditions with the addition of 2% (vol/vol) dimethyl sulfoxide. Three to five days before use, the cells were replanted with the same medium. These cells expressed predominately L channel currents. […]
(§3) Ca^2+ Channel Current Recording in Neuroblastoma Cells. […] Since the peak currents measured with 20 mM Ba^2+ as the charge carrier were usually small (about 200 pA) the series resistance compensation was not usually employed. […] For every single-cell recording, stable readings were first obtained for 5 min; the drug was then added to the bath solution. […]

[2] = tested on: ACh in the cortical and hippocampal regions of the brain; conditions: U.S. Pat. No. 5,137,878; cited from earlier work
[3] = target: T1, monoamine oxidase-B (Rattus norvegicus, UniProt P19643); test: in vitro monoamine oxidase-B inhibiting activity (radiochemical, β-phenylethylamine substrate); assay type: biochemical; conditions: read-out: % MAO-B Inhibition; for inhibition at 1000 µg/mL: 1.0 mg/ml; for inhibition at 10000 µg/mL: 10 mg/ml
T1 construct: homogenates of rat brain; from tissue; host or cells: rat brain homogenate
T1 sequence (P19643 1-520): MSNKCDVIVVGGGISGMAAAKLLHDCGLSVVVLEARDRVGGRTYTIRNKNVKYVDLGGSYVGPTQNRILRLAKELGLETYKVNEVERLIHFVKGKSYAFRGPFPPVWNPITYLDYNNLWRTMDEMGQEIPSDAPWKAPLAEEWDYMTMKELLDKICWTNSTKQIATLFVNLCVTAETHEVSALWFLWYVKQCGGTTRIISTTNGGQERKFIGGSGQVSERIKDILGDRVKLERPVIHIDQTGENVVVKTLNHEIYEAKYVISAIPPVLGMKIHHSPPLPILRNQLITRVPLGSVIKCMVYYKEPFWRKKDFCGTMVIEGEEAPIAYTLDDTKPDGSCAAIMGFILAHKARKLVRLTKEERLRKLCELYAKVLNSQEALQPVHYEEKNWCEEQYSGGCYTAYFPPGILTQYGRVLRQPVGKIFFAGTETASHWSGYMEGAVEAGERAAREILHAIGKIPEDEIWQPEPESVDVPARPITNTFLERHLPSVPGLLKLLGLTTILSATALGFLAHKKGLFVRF
Method: Example 1 is a study of the effects of several extracts of HT1001, PQ4, PQ5, PQ6 and pure ginsenosides, on monoamine oxidase A (MAO A) and monoamine oxidase B (MAO B) activity in vitro.
HT-1001, related extracts and pure ginsenosides were evaluated for in vitro monoamine oxidase-A and monoamine oxidase-B inhibiting activity using the radiochemical procedure of Lyles and Callingham, Biochem. Pharmacol. 31: 1417-1424 (1982), employing either radiolabelled 5-hydroxytryptamine or β-phenylethylamine as substrates for monoamine oxidase-A (MAO-A) or monoamine oxidase-B (MAO-B) respectively. Various concentrations of the compounds of interest were incubated in appropriately diluted homogenates of rat brain in a 0.2 M potassium phosphate buffer. After a 15 minute preincubation period the reaction was initiated by the addition of substrate. Incubations proceded at 37° C. for 10 minutes. Incubation was terminated by the addition of acid and the radiolabelled products (5-hydroxyindoleacetic acid, 5-hydroxyindoleacetaldehyde or phenylacetic acid, phenylacetaldehyde) were extracted and quantified by liquid scintillation counting procedures. Incubations were done in triplicate and incubations including pheneizine a known MAO inhibitor were included as controls and for comparison. The percent inhibition of monoamine oxidase-A or monoamine oxidase-B activity compared to controls containing no experimental material was calculated.

[4] = tested on: 5-hydroxytryptamine; conditions: rat and mouse brain; Zhang et al 1990; cited from earlier work
[5] = tested on: L type calcium channel; test: L type calcium channel currents in N1E115 neuroblastoma cells (whole-cell patch-clamp); assay type: cell-based, mouse; conditions: same concentration (100 μM); N1E-115 cells
Method: as §1, §2, §3

Row | SMILES | effect on T type calcium channel currents [1] | availability of ACh [2] | symptoms of Alzheimer-type senile dementia [2] | inhibition at 1000 µg/mL [3] [%] | inhibition at 10000 µg/mL [3] [%] | levels of 5-hydroxytryptamine and 5-hydroxyindoleacetic acid [4] | effect on L type calcium channel currents [5]
1 | CC(C)=CCC[C@](C)(O[C@@H]1O[C@H](CO[C@@H]2O[C@H](CO)[C@@H](O)[C@H](O)[C@H]2O)[C@@H](O)[C@H](O)[C@H]1O)[C@H]1CC[C@]2(C)[C@@H]1[C@H](O)C[C@@H]1[C@@]3(C)CC[C@H](O[C@@H]4O[C@H](CO)[C@@H](O)[C@H](O)[C@H]4O[C@@H]4O[C@H](CO)[C@@H](O)[C@H](O)[C@H]4O)C(C)(C)[C@@H]3CC[C@]12C [Rb1, ginsenoside Rb1] | significant inhibitory effect; also recorded: inhibitory effects | enhance the availability of ACh | alleviate the symptoms of Alzheimer-type senile dementia | -11.6 | -7.8 | decrease the levels | significant inhibitory effect; also recorded: inhibitory effects
2 | CC(C)=CCC[C@](C)(O[C@@H]1O[C@H](CO)[C@@H](O)[C@H](O)[C@H]1O)[C@H]1CC[C@]2(C)[C@@H]1[C@H](O)C[C@@H]1[C@@]3(C)CC[C@H](O)C(C)(C)[C@@H]3[C@@H](O[C@@H]3O[C@H](CO)[C@@H](O)[C@H](O)[C@H]3O)C[C@]12C [Rg1, ginsenoside Rg1] | significant inhibitory effect; also recorded: inhibitory effects | enhance the availability of ACh | alleviate the symptoms of Alzheimer-type senile dementia | -7.2 | -5 | decrease the levels | significant inhibitory effect; also recorded: inhibitory effects

From patent US6083932A, “Pharmaceutical compositions derived from ginseng and methods of treatment using same” (CV Technologies Inc., priority 1998, dated 2000)
